Reference: US20200407717A1, “METHODS OF MODULATING ANTISENSE ACTIVITY” (Ionis Pharmaceuticals, Inc., priority 2018, published 2020)
e = 2'-O-(2-methoxyethyl) (MOE); d = 2'-deoxy (DNA)

Columns and labels:
EGF-EGFR signaling = assay: EGFR signaling western blot (p-EGFR, p-ERK), A431 cells; format: cell-based; conditions: 2 μM for 16 hours
Method: In order to test the effects of a PS-ASO on EGFR signaling, A431 cells were incubated with compound no. 116847 or no PS-ASO compound for 16 hours. All cells were then treated with EGF prior to being subjected to the pulse-chase protocol described above. Cell lysates were run on a SDS-PAGE gel and analyzed by sequential western blot for phosphorylated EGFR (P-EGFR), total EGFR (T-EGFR), phosphorylated ERK (P-ERK), and total ERK (T-ERK) using the antibodies described above for EGFR, 4370 for P-ERK (Cell Signaling Technology), and 4695 for T-ERK (Cell Signaling Technology).
110080, 25690, 25699, 395251, or 395254 at 2 μM for 16 hours prior to carrying out the pulse-chase experiment described above.

Malat1 RNA = assay: Antisense activity by RT-qPCR, Malat1, A431 cells; format: cell-based
Method: A431 cells were grown at 10,000 cells per well and pre-treated with a variety of growth factors to determine if the addition of exogenous growth factors affects antisense activity or uptake of modified antisense oligonucleotides in a cell. The growth factors used were EGF, insulin growth factor (IGF), transforming growth factor (TGF), […] (VEGF), hepatocyte growth factor (HGF), platelet growth factor (PGF) and fibroblasts growth factor (FGF). To test antisense activity, cells were treated for 4 hours with a growth factor or vehicle alone, and then treated with compound no. 25690 (complementary to Drosha), compound no. 395254 (complementary to Malat1), or vehicle alone. RNA was isolated from the cells and Drosha or Malat1 RNA levels were measured by RT-qPCR. Human primer probe set 13816 (forward sequence […], designated herein as SEQ ID NO: 3; reverse sequence […], designated herein as SEQ ID NO: 4; probe sequence […], designated herein as SEQ ID NO: 5) was used to measure Drosha mRNA levels and primer probe set RTS2736 (forward sequence […], designated herein as SEQ ID NO: 6; reverse sequence […], designated herein as SEQ ID NO: 7; probe sequence TGCCACATCGCCACCCCGT, designated herein as SEQ ID NO: 8) was used to measure Malat1 RNA levels. Drosha and Malat1 RNA levels were normalized to total RNA content, as measured by RIBOGREEN®. Results are presented in the tables below as normalized RNA levels, relative to untreated control cells.
A431 cells were treated with EGF or TGF at 200 ng/mL in the presence or absence of 1 μM of the EGFR tyrosine kinase inhibitor PD174265. The cells were then treated with compound no. 25690 or compound no. 395254 as in Example 8. Total RNA was isolated and analyzed by RT-qPCR, as in Example 8.
Following siRNA treatment, cells were treated with compound no. 25690 or compound no. 395254 in the presence or absence of EGF. 16 hours after treatment with a PS-ASO with or without EGF, cells were harvested, and RNA levels were analyzed via RT-qPCR as in Example 8.

## AGGAAGGAAGCTGGCGATCT (sugars from the 5' end e5 d10 e5, all phosphorothioate, methylation of C not given here) [compound 25690]
EGF-EGFR signaling
  EGFR signaling: not be impacted
Malat1 RNA; 2.0 nM, Control, Table 19
  Malat1 RNA (% Control): 100.0 % Control
Malat1 RNA; 2.0 nM, EGF+PD174265
  Malat1 RNA (% Control): 100.0 % Control
Malat1 RNA; 2.0 nM, EGF, Table 19
  Malat1 RNA (% Control): 100.0 % Control
Malat1 RNA; 3.9 nM, Control, Table 19
  Malat1 RNA (% Control): 99.2 % Control
Malat1 RNA; 3.9 nM, EGF+PD174265
  Malat1 RNA (% Control): 110.0 % Control
Malat1 RNA; 3.9 nM, EGF, Table 19
  Malat1 RNA (% Control): 105.0 % Control
Malat1 RNA; 7.8 nM, Control, Table 19
  Malat1 RNA (% Control): 98.2 % Control
Malat1 RNA; 7.8 nM, EGF+PD174265
  Malat1 RNA (% Control): 97.2 % Control
Malat1 RNA; 7.8 nM, EGF, Table 19
  Malat1 RNA (% Control): 78.2 % Control
Malat1 RNA; 15.6 nM, Control, Table 19
  Malat1 RNA (% Control): 72.3 % Control
Malat1 RNA; 15.6 nM, EGF+PD174265
  Malat1 RNA (% Control): 61.2 % Control
Malat1 RNA; 15.6 nM, EGF, Table 19
  Malat1 RNA (% Control): 60.1 % Control
Malat1 RNA; 31.3 nM, Control, Table 19
  Malat1 RNA (% Control): 64.4 % Control
Malat1 RNA; 31.3 nM, EGF+PD174265
  Malat1 RNA (% Control): 59.8 % Control
Malat1 RNA; 31.3 nM, EGF, Table 19
  Malat1 RNA (% Control): 40.5 % Control
Malat1 RNA; 62.5 nM, Control, Table 19
  Malat1 RNA (% Control): 59.6 % Control
Malat1 RNA; 62.5 nM, EGF+PD174265
  Malat1 RNA (% Control): 50.2 % Control
Malat1 RNA; 62.5 nM, EGF, Table 19
  Malat1 RNA (% Control): 43.9 % Control
Malat1 RNA; 125 nM, Control, Table 19
  Malat1 RNA (% Control): 46.2 % Control
Malat1 RNA; 125 nM, EGF+PD174265
  Malat1 RNA (% Control): 39.6 % Control
Malat1 RNA; 125 nM, EGF, Table 19
  Malat1 RNA (% Control): 25.9 % Control
Malat1 RNA; 250 nM, Control, Table 19
  Malat1 RNA (% Control): 36.1 % Control
Malat1 RNA; 250 nM, EGF+PD174265
  Malat1 RNA (% Control): 45.6 % Control
Malat1 RNA; 250 nM, EGF, Table 19
  Malat1 RNA (% Control): 18.9 % Control
Malat1 RNA; 500 nM, Control, Table 19
  Malat1 RNA (% Control): 35.5 % Control
Malat1 RNA; 500 nM, EGF+PD174265
  Malat1 RNA (% Control): 42.5 % Control
Malat1 RNA; 500 nM, EGF, Table 19
  Malat1 RNA (% Control): 14.5 % Control
Malat1 RNA; 1000 nM, Control, Table 19
  Malat1 RNA (% Control): 22.3 % Control
Malat1 RNA; 1000 nM, EGF+PD174265
  Malat1 RNA (% Control): 22.3 % Control
Malat1 RNA; 1000 nM, EGF, Table 19
  Malat1 RNA (% Control): 15.2 % Control
Malat1 RNA; 2000 nM, Control, Table 19
  Malat1 RNA (% Control): 19.2 % Control
Malat1 RNA; 2000 nM, EGF+PD174265
  Malat1 RNA (% Control): 15.3 % Control
Malat1 RNA; 2000 nM, EGF, Table 19
  Malat1 RNA (% Control): 12.4 % Control
Malat1 RNA; 4000 nM, Control, Table 19
  Malat1 RNA (% Control): 17.2 % Control
Malat1 RNA; 4000 nM, EGF+PD174265
  Malat1 RNA (% Control): 13.2 % Control
Malat1 RNA; 4000 nM, EGF, Table 19
  Malat1 RNA (% Control): 10.2 % Control
Malat1 RNA; Control, Table 19
  IC50: 43 ± 5.7 nM
Malat1 RNA; EGF 200 ng/mL + 1 μM PD174265, Table 19
  IC50: 47 ± 5.3 nM
Malat1 RNA; EGF 200 ng/mL, Table 19
  IC50: 19 ± 3 nM
